Results published in PMC7156724, “Potent BRD4 inhibitor suppresses cancer cell-macrophage interaction” (Nature Communications, 2020).
Values joined by “and” are separate entries in the source; they are usually repeats but may differ in a detail not shown here. Equal entries are not always repeated.

Experiments:
A375 human melanoma = A375 human melanoma xenograft tumor growth; type: in vivo, mouse; settings: Fig.3e, Group 5, 1 mg/kg PO QD, 5 Days on, 2 Days off / week x3, individual animals
From the text: PO, oral administration; QD, once daily; BID, twice daily. b–d Tumor growth curves for A2780 ovarian tumor (n = 5) (b), TMD8 large B cell lymphoma (n = 6) (c), and B16F10 melanoma (n = 5) (d) bearing mice treated with the indicated compounds once daily for 11-21 days. e, f Tumor growth curves for A375 melanoma (n = 6) (e), and patient-derived xenograft (PDX) of melanoma (n = 5) (f) bearing mice treated with the indicated compounds once daily (5 days on, 2 days off) for 21 days. For d–f, NHWD-870 used is NHWD-870-HCl synthesized using Suzuki coupling route. Data are presented as mean ± SEM in (a, b, d, f) and mean + SEM in (c, e). p values were calculated using two-tailed, unpaired t tests. *p < 0.05; **p < 0.01; ***p < 0.001. Source data are provided as a Source Data file.
4–6 weeks old female BALB/c nude mice were used for most experiments, with the exception of 6–8 weeks old female C57BL/6 mice were used for B16F10 experiments, and 6–8 weeks old male BALB/c nude mice and SD rats were used for pharmacokinetic experiments. All animals were purchased from Shanghai SIPPR-Bk Lab Animal Co., Ltd. All animals were housed under a regimen of 12 h light/12 h dark cycles and specific pathogen-free conditions. 5×10^6 NCI-H526, ES-2, MDA-MB231, A2780, A375, B16F10, and TMD-8 cells (0.1 ml) were injected subcutaneously into female nude mice. The melanoma patient-derived xenograft model was derived from a human melanoma sample (BRAF, NARS and NF1 wild type, and p53 mutant) removed from a patient in Xiangya Hospital. Surgically removed tumor fragments were implanted subcutaneously into female NSG mice. When the tumors grew to ~1000 mm^3, they were harvested and cryopreserved or immediately re-implanted for expansion or experiments. Mouse body weight and tumor sizes were measured every 3 days. Once the tumors grew to 150–200 mm^3, mice were treated with the compounds as described in the Figures. 1 × 10^6 A2780 cells (1 ml) were injected into the abdominal cavity of nude mice. Ascitic volume and tumor weight were measured by an electronic balance. All the procedures were evaluated and approved by the Institutional Animal Care and Use Committee of Central South University and Yale University. […]
We apologize for not clearly labeling the experiments using compounds synthesized using Suzuki coupling method. In the revised manuscript, we modified the text to clearly mark the animal models in Fig 3d-f were tested using NHWD-870 synthesized using Suzuki […]
compared the activity of NHWD-870 synthesized using Stille coupling route with the NHWD-870 synthesized from Suzuki coupling route (Reviewer Figure 1). […]
activity and possible toxicity were identical.
Reviewer Figure 1 NHWD-870 synthesized through Stille or Suzuki route has similar properties in vivo. Tumor bearing mice were treated with 2mg/kg of the indicated compounds, orally administrated once daily for 21 days. Shown are tumor growth curves (a) and body weight change (b) for A375 melanoma bearing mice. […]
986158 in terms of potency, but apart from with the A375 melanocyte cell line, the advance seems relatively moderate. With such similar compounds, the pharmacokinetic properties and ability to accumulate at the desired site is often more important. Figure S6d (prev. Fig. 3d) in the previous

[1] = test system: NCI-H211 small cell lung cancer (SCLC) cells; assay: AlamarBlue assay, NCI-H211; type: cell-based; settings: for Cellular activity in SCLCs (H211), alamarBlue: Fig.1e, replicates
Method in brief: (§1)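 BRD4 (BD1+BD2) binding to acetylated histone H4 was measured with a TR-FRET kit per the kit protocol. For the AlamarBlue assays, MDA-MB231, NCI-H211 and A375 cells were plated at ~30% confluence, adhered overnight and treated. Resazurin (0.3 mg/ml reagent) was added for 18 h and fluorescence read at ex 530/em 590 nm.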

H526 tumors = assay: Immunofluorescent staining of cleaved caspase 3 and Ki67 in H526 tumors; type: in vivo, mouse; settings: treated H526 tumors, independent images
Protocol: Immunofluorescence staining of tumor sections was performed according to the manufacturer’s instructions. Slides were imaged using a Zeiss Axiovert 200 fluorescence microscope (Carl Zeiss MicroImaging; Thornwood, NY), and images were captured using Openlab3 software (Imprecision, Lexington, MA). Cleaved caspase 3, Ki67, CSF1, and CD68 positive cells were counted with ImageJ version 1.52s[58].
Supplementary Figure 10. NHWD-870 increased tumor apoptosis and inhibite d tumor proliferation.
(a,b) Immunofluorescent staining of cleaved caspase 3 (apoptotic cells, red) and E-Cadherin (cancer cells, […]
green) in vehicle, NHWD-870 or BMS-986158 treated H526 tumors from Figure 4a. Shown are […]
representative images of cleaved caspase 3 positive cells (a) and quantification of cleaved caspase 3 positive […]
cells (b). Scale bar is 30 μm. Data are presented as mean ± SEM from 6 independent images. p values were […]
calculated using two-tailed, unpaired t tests. **, p<0.01; ***, p<0.001. (c,d) Immunofluorescent staining of […]
Ki67 (proliferating cells, red) and E-Cadherin (cancer cells, green) in vehicle, NHWD-870 or BMS-986158 […]
treated H526 tumors from (Figure 4a). Shown are representative images of Ki67 positive cells (c) and […]
quantification of Ki67 positive cells (d). Scale bar is 30 μm. […]
independent images. p values were calculated using two-tailed, unpaired t tests. *, p<0.05; ***, p<0.001. […]

[2] = Body weight change of H526 SCLC tumor bearing mice; settings: for Mouse body weight changes (%) from Day 0: 3mg/kg, QDx21D, 3 mg/kg
[3] = test system: MDA-MB231 triple negative breast cancer (TNBC) cells; assay: AlamarBlue assay, MDA-MB231; type: cell-based, human; settings: for Cellular activity in TNBCs (MDA-MB231), alamarBlue: Fig.1f, replicates
Method in brief: as §1

Structure (SMILES): Cc1nnn(C)c1-c1cnc2c3ccc(C(C)(C)O)cc3n([C@H](c3ccccc3)C3CCOCC3)c2c1 [BMS-986158, reference compound]
- Tumor volume (A375 human melanoma; day 0): 150.774 mm3 and 118.553 mm3 and 191.653 mm3 and 150.802 mm3 and 127.386 mm3 and 173.315 mm3
- Tumor volume (A375 human melanoma; day 4): 190.606 mm3 and 233.18 mm3 and 278.289 mm3 and 235.064 mm3 and 184.498 mm3 and 135.54 mm3
- Tumor volume (A375 human melanoma; day 7): 243.772 mm3 and 508.815 mm3 and 374.344 mm3 and 456.749 mm3 and 169.114 mm3 and 146.329 mm3
- Tumor volume (A375 human melanoma; day 11): 541.178 mm3 and 982.065 mm3 and 955.744 mm3 and 627.932 mm3 and 275.862 mm3 and 357.353 mm3
- Tumor volume (A375 human melanoma; day 14): 840.395 mm3 and 1426.45 mm3 and 1137.31 mm3 and 1074.5 mm3 and 373.109 mm3 and 473.708 mm3
- Tumor volume (A375 human melanoma; day 18): 1260.47 mm3 and 1267.54 mm3 and 1188.69 mm3 and 1129.05 mm3 and 402.127 mm3 and 719.097 mm3
- Tumor volume (A375 human melanoma; day 21): 1603.7 mm3 and 1878.69 mm3 and 1789.35 mm3 and 1645.42 mm3 and 683.962 mm3 and 956.808 mm3
- Cellular activity in SCLCs (H211), alamarBlue ([1]; concentration 0.0169701): 0.078 and 7.88
- Cellular activity in SCLCs (H211), alamarBlue ([1]; concentration 0.0398488): 0.019 and 6.06
- Cellular activity in SCLCs (H211), alamarBlue ([1]; concentration 0.137272): 0.036 and 13.2
- Cellular activity in SCLCs (H211), alamarBlue ([1]; concentration 0.614394): 28.16 and 35.58
- Cellular activity in SCLCs (H211), alamarBlue ([1]; concentration 1.09152): 74.14 and 79.88
- Cellular activity in SCLCs (H211), alamarBlue ([1]; concentration 1.56864): 88.17 and 88.8
- Cellular activity in SCLCs (H211), alamarBlue ([1]; concentration 2.04576): 89.55 and 89.3
- Cellular activity in SCLCs (H211), alamarBlue ([1]; concentration 3): 86.89 and 89.73
- Cellular activity in SCLCs (H211), alamarBlue ([1]; concentration column prints 2.52288): 87.67 and 88.48
- IC50 ([1]; Homo sapiens, NCI-H211, 72 h, 72 h treatment, nM, read-out: IC50, cellular activity in NCI-H211 (alamarBlue)): 6.6 nM
- % of KI67 (Ki67 positive cells) (H526 tumors): 15% and 17% and 13% and 16% and 12%
- Body weight change (%) ([2]; 3mg/kg,QD, day 0 and day 20 or the last available data point, individual mice): -8.559% and -23.2889% and -19.9501% and -12.3957%
- Mouse body weight changes (%) from Day 0 ([2]; Day 3, individual mice): -2.33% and 1.06% and -4.40% and 1.07% and 0.98% and -1.46%
- Mouse body weight changes (%) from Day 0 ([2]; Day 7, individual mice): -0.51% and -2.62% and -8.04% and -1.69% and -7.56% and -3.13%
- Mouse body weight changes (%) from Day 0 ([2]; Day 10, individual mice): 0.08% and -4.17% and 1.65% and -15.38% and -17.07% and -3.30%
- Mouse body weight changes (%) from Day 0 ([2]; Day 14, individual mice): -5.26% and -0.68% and -6.36% and 0.13% and -8.04% and -3.28%
- Mouse body weight changes (%) from Day 0 ([2]; Day 17, individual mice): -6.72% and -1.06% and -1.00% and -0.31% and -23.29% and -5.11%
- Mouse body weight changes (%) from Day 0 ([2]; Day 20, individual mice): -12.40% and -8.56% and -1.00% and 1.16% and -19.95%
- body weight loss ([2]; H526 SCLC tumor bearing mice, 3mg/kg QD): about 11%
- Cellular activity in TNBCs (MDA-MB231), alamarBlue ([3]; concentration 0.15): 20.45 and 20.15
- Cellular activity in TNBCs (MDA-MB231), alamarBlue ([3]; concentration 0.6): 51.35 and 50.6
- Cellular activity in TNBCs (MDA-MB231), alamarBlue ([3]; concentration 1): 73.39 and 72.09
- Cellular activity in TNBCs (MDA-MB231), alamarBlue ([3]; concentration 1.5): 83.55 and 84.39
- Cellular activity in TNBCs (MDA-MB231), alamarBlue ([3]; concentration 2): 88.19 and 87.76
- Cellular activity in TNBCs (MDA-MB231), alamarBlue ([3]; concentration 2.5): 88.65 and 88.13
- Cellular activity in TNBCs (MDA-MB231), alamarBlue ([3]; concentration 3): 90.46 and 90.37
- Cellular activity in TNBCs (MDA-MB231), alamarBlue ([3]; concentration -0.3): 6.95 and 6.37
- Cellular activity in TNBCs (MDA-MB231), alamarBlue ([3]; concentration -0.9): 4.15 and 1.05
- IC50 ([3]; Homo sapiens, MDA-MB-231, 72 h, 72 h treatment, nM, read-out: IC50, cellular activity in MDA-MB231 (alamarBlue)): 5 nM
